Test results reported in paper PMC8709289, “Tetrahydroimidazo[4,5-c]pyridine-Based Inhibitors of Porphyromonas gingivalis Glutaminyl Cyclase” (Pharmaceuticals, 2021).
Read-outs that look alike come from different tables or passages of the source.

What was measured:
[1] = target: PgQC (glutaminyl cyclase from P. gingivalis) (Porphyromonas gingivalis, UniProt Q7MT37); experiment: Inhibition of P. gingivalis glutaminyl cyclase, fluorogenic substrate H-Gln-AMC; type: biochemical
Protocol: (§2) The enzymatic activity of recombinant QCs were evaluated using the fluorogenic substrate H-Gln-AMC as described previously [25]. For inhibitor testing, compounds were added with 1% (v/v) DMSO in the reaction mixture. Inhibitory constants were determined using concentrations of H-Gln-AMC varying from 1/4 KM to 2 KM and a final concentration of QC in a range between 20 and 50 nM. Progress curves were fitted to the general equation for competitive inhibition using GraFit software (Version 7, Erithacus software Ltd., Horley, UK).

[2] = target: TfQC; experiment: Inhibition of Tannerella forsythia glutaminyl cyclase, fluorogenic substrate H-Gln-AMC; conditions: read-out: Ki TfQC; recombinant QC, competitive inhibition fit
Protocol: as §2

[3] = target: PiQC (Prevotella intermedia, UniProt A0A3R7XL21); experiment: Inhibition of Prevotella intermedia glutaminyl cyclase, fluorogenic substrate H-Gln-AMC; type: biochemical; conditions: recombinant QC, competitive inhibition fit
Protocol: (§3) The enzymatic activity of recombinant QCs were evaluated using the fluorogenic substrate H-Gln-AMC as described previously [25]. For inhibitor testing, compounds were added with 1% (v/v) DMSO in the reaction mixture.

[4] = target: hQC (human glutaminyl cyclase) (Homo sapiens, UniProt Q16769); experiment: Inhibition of human glutaminyl cyclase, fluorogenic substrate H-Gln-AMC; type: biochemical
Protocol: as §3

[5] = Cytotoxicity, cell viability in SHSY-5Y; type: cell-based; conditions: human, SHSY-5Y cells; 30 µM compound
Excerpt: (§1) Table 3 Inhibition of related glutaminyl cyclases from bacteria and human and cytotoxicity of selected inhibitors. | column: 8k; 8t; 8w

[6] = Cytotoxicity, cell viability in Hep-G2; type: cell-based; conditions: human, Hep-G2 cells; 30 µM compound
Excerpt: as §1

[7] = recombinant QC, competitive inhibition fit, read-out: Ki PgQC
[8] = recombinant QC, competitive inhibition fit, read-out: Ki hQC

Chain of PiQC (A0A3R7XL21 entry or part of it): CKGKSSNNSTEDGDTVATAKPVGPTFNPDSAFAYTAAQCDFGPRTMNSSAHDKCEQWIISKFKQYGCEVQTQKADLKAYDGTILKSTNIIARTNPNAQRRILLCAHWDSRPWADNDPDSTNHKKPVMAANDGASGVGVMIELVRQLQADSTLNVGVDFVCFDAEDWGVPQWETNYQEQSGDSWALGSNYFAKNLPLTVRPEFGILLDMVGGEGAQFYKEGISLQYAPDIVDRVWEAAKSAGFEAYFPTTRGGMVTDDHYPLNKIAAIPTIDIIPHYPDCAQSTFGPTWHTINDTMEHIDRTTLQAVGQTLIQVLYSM
Chain of PgQC (glutaminyl cyclase from P. gingivalis) (Q7MT37 entry or part of it): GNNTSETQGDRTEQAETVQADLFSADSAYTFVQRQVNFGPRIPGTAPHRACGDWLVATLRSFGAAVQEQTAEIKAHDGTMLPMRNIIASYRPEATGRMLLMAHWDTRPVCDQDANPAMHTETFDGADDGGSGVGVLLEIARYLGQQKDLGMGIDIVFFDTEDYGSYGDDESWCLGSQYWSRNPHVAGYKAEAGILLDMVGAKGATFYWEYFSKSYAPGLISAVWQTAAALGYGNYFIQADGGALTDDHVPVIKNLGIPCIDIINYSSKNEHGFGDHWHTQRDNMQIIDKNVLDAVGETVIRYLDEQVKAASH
Chain of hQC (human glutaminyl cyclase) (Q16769 29-361): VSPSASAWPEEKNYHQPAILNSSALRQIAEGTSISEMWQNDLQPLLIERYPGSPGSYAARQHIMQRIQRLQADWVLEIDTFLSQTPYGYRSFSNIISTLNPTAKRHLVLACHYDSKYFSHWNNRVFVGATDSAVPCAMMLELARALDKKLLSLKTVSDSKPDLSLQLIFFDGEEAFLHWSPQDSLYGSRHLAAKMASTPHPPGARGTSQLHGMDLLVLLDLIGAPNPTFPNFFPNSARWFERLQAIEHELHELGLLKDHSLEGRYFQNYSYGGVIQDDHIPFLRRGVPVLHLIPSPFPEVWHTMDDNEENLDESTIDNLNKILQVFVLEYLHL

| Structure (SMILES) | Ki [1, 7] [nM] | further results |
| --- | --- | --- |
| c1ccc(CNCCc2c[nH]cn2)cc1 [6a, N-Benzylhistamine] |  | Inhibition of PgQC at 10 µM [1]: no inhibition @ 10 µM |
| c1ccc(CN2CCc3[nH]cnc3C2)cc1 [7a, 5-Benzyl-3,4,6,7-tetrahydroimidazo[4,5-c]pyridine] | 909 ± 5 |  |
| c1ccc(CCN2CCc3[nH]cnc3C2)cc1 [7b, 5-(2-Phenylethyl)-3,4,6,7-tetrahydroimidazo[4,5-c]pyridine] | 6470 ± 400 |  |
| c1ccc(CN2CCc3[nH]cnc3C23COC3)cc1 [7c, 5-Benzylspiro[6,7-dihydro-3H-imidazo[4,5-c]pyridine-4,3′-oxetane]] | 1760 ± 145 |  |
| CC1c2nc[nH]c2CCN1Cc1ccccc1 (stereo not shown) [7d, 5-Benzyl-4-methyl-3,4,6,7-tetrahydroimidazo[4,5-c]pyridine] | 3080 ± 40 |  |
| c1ccc(CN2CCc3nc[nH]c3C2c2ccccc2)cc1 (stereo not shown) [7e, 5-Benzyl-4-phenyl-3,4,6,7-tetrahydroimidazo[4,5-c]pyridine] |  | Inhibition of PgQC at 10 µM [1]: no inhibition @ 10 µM |
| O=C(c1ccccc1)N1CCc2[nH]cnc2C1 [8a, Phenyl(3,4,6,7-tetrahydroimidazo[4,5-c]pyridin-5-yl)methanone] | 435 ± 15 |  |
| O=C(Cc1ccccc1)N1CCc2[nH]cnc2C1 [8b, 2-Phenyl-1-(3,4,6,7-tetrahydroimidazo[4,5-c]pyridin-5-yl)ethanone] | 1680 ± 80 |  |
| O=C(CCc1ccccc1)N1CCc2[nH]cnc2C1 [8c, 3-Phenyl-1-(3,4,6,7-tetrahydroimidazo[4,5-c]pyridin-5-yl)propan-1-one] | 1750 ± 60 |  |
| O=C(/C=C/c1ccccc1)N1CCc2[nH]cnc2C1 [8d, (E)-3-Phenyl-1-(3,4,6,7-tetrahydroimidazo[4,5-c]pyridin-5-yl)prop-2-en-1-one] | 1570 ± 25 |  |
| O=C(c1ccc(F)cc1)N1CCc2[nH]cnc2C1 [8e, (4-Fluorophenyl)-(3,4,6,7-tetrahydroimidazo[4,5-c]pyridin-5-yl)methanone] | 879 ± 8 |  |
| O=C(c1cccc(F)c1)N1CCc2[nH]cnc2C1 [8f, (3-Fluorophenyl)-(3,4,6,7-tetrahydroimidazo[4,5-c]pyridin-5-yl)methanone] | 322 ± 6 |  |
| O=C(c1cc(F)c(F)c(F)c1)N1CCc2[nH]cnc2C1 [8g, (3,4,6,7-Tetrahydroimidazo[4,5-c]pyridin-5-yl)(3,4,5-trifluoro-phenyl)methanone] | 904 ± 7 |  |
| O=C(c1ccc(Cl)cc1)N1CCc2[nH]cnc2C1 [8h, (4-Chlorophenyl)-(3,4,6,7-tetrahydroimidazo[4,5-c]pyridin-5-yl)methanone] | 682 ± 25 |  |
| O=C(c1cccc(Cl)c1)N1CCc2[nH]cnc2C1 [8i, (3-Chlorophenyl)-(3,4,6,7-tetrahydroimidazo[4,5-c]pyridin-5-yl)methanone] | 174 ± 14 |  |
| O=C(c1ccc(Cl)c(Cl)c1)N1CCc2[nH]cnc2C1 [8j, (3,4-Dichlorophenyl)-(3,4,6,7-tetrahydroimidazo[4,5-c]pyridin-5-yl)methanone] | 257 ± 16 |  |
| O=C(c1cc(Cl)cc(Cl)c1)N1CCc2nc[nH]c2C1 [8k, (3,5-Dichlorophenyl)-(3,4,6,7-tetrahydroimidazo[4,5-c]pyridin-5-yl)methanone] | 100 ± 6 | Ki [2]: 176 ± 3 nM; Ki [3]: 63 ± 7 nM; Ki [4, 8]: 387 ± 64 nM; viability at 30 µM [5]: 119%; viability at 30 µM [6]: 92% |

| Structure (SMILES) | Ki [1, 7] [nM] | further results |
| --- | --- | --- |
| COc1ccc(C(=O)N2CCc3[nH]cnc3C2)cc1 [8l, (4-Methoxyphenyl)-(3,4,6,7-tetrahydroimidazo[4,5-c]pyridin-5-yl)methanone] | 833 ± 49 |  |
| COc1cccc(C(=O)N2CCc3[nH]cnc3C2)c1 [8m, (3-Methoxyphenyl)-(3,4,6,7-tetrahydroimidazo[4,5-c]pyridin-5-yl)methanone] | 335 ± 6 |  |
| COc1ccc(C(=O)N2CCc3[nH]cnc3C2)cc1OC [8n, (3,4-Dimethoxyphenyl)-(3,4,6,7-tetrahydroimidazo[4,5-c]pyridin-5-yl)methanone] | 1470 ± 304 |  |
| COc1cc(OC)cc(C(=O)N2CCc3[nH]cnc3C2)c1 [8o, (3,5-Dimethoxyphenyl)-(3,4,6,7-tetrahydroimidazo[4,5-c]pyridin-5-yl)methanone] | 928 ± 21 |  |
| O=C(c1ccc2c(c1)OCCO2)N1CCc2[nH]cnc2C1 [8p, (2,3-Dihydrobenzo[b][1,4]dioxin-6-yl)(1,4,6,7-tetrahydro-5H-imidazo-[4,5-c]pyridin-5-yl)methanone] | 1340 ± 219 |  |
| O=C(c1ccc2c(c1)OCO2)N1CCc2[nH]cnc2C1 [8q, Benzo[d][1,3]dioxol-5-yl(3,4,6,7-tetrahydroimidazo[4,5-c]pyridin-5-yl)methanone] | 560 ± 4 |  |
| CCCOc1cccc(C(=O)N2CCc3[nH]cnc3C2)c1 [8r, (3-Propoxyphenyl)-(3,4,6,7-tetrahydroimidazo[4,5-c]pyridin-5-yl)methanone] | 780 ± 24 |  |
| COc1cc(C(=O)N2CCc3[nH]cnc3C2)ccc1F [8s, (4-Fluoro-3-methoxyphenyl)-(3,4,6,7-tetrahydroimidazo[4,5-c]pyridin-5-yl)methanone] | 1240 ± 113 |  |
| COc1cc(Cl)cc(C(=O)N2CCc3[nH]cnc3C2)c1 [8t, (3-Chloro-5-methoxyphenyl)(1,4,6,7-tetrahydro-5H-imidazo[4,5-c]pyridin-5-yl)methanone] | 87 ± 6 | Ki [2]: 221 ± 19 nM; Ki [3]: 96 ± 12 nM; Ki [4, 8]: 385 ± 96 nM; viability at 30 µM [5]: 128%; viability at 30 µM [6]: 96% |
| O=C(c1ccc(-c2ccccc2)cc1)N1CCc2[nH]cnc2C1 [8u, [1,1′-Biphenyl]-4-yl(3,4,6,7-tetrahydroimidazo[4,5-c]pyridin-5-yl)methanone] | 1900 ± 71 |  |
| O=C(c1cccc(-c2ccccc2)c1)N1CCc2[nH]cnc2C1 [8v, [1,1′-Biphenyl]-3-yl-(3,4,6,7-tetrahydroimidazo[4,5-c]pyridin-5-yl)methanone] | 547 ± 41 |  |
| O=C(c1ccc2ccccc2c1)N1CCc2nc[nH]c2C1 [8w, Naphthalen-2-yl-(3,4,6,7-tetrahydroimidazo[4,5-c]pyridin-5-yl)methanone] |  | Ki [2]: 185 ± 10 nM; Ki [3]: 117 ± 2 nM; Ki [4, 8]: 132 ± 11 nM; Ki [1]: 126 ± 9 nM; viability at 30 µM [5]: 127%; viability at 30 µM [6]: 94% |
| COc1ccc(NC(=S)NCCCn2ccnc2)cc1OC [PQ50, reference compound] | 6000 ± 150 |  |
| c1ccc2[nH]cnc2c1 [compound 1, benzimidazole, reference compound] | 32000 ± 1400 |  |
| c1c[nH]cn1 [compound 2, imidazole, reference compound] | 350000 ± 23000 |  |
| c1ccc(Cn2ccnc2)cc1 [compound 3, N-benzylimidazole, reference compound] | 10000 ± 200 | Ki [4]: 17000 ± 3000 nM |
